The inhibition is the relative decrease from the control value, in per cent. Low values mean a weak effect, high ones a strong effect.

From patent US9029389B2 (Institut Pasteur Korea, priority 2011, dated 2015) come the findings set out here.

The target in this assay is T1, Human 5-lipoxygenase (Homo sapiens, UniProt P09917).
T1 construct: purchased Cayman 60402; host or cells: insect cells
T1 sequence (P09917 1-674): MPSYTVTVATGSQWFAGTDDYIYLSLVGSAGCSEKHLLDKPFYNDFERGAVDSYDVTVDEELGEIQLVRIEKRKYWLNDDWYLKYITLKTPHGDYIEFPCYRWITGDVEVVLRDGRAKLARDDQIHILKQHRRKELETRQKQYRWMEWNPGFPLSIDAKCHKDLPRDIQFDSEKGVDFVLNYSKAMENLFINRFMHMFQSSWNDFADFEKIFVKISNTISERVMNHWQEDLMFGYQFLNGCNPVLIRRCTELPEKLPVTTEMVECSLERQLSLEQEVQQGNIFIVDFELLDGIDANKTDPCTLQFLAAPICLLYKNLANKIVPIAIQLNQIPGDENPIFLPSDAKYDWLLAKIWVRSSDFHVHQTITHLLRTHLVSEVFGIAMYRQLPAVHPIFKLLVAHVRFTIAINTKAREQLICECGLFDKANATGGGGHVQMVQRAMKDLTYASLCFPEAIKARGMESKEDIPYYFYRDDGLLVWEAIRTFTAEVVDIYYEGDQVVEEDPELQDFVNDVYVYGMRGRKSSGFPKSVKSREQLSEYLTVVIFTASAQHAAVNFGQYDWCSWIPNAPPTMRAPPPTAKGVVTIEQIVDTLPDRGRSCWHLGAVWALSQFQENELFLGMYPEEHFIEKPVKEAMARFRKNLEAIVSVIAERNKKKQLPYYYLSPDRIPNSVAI
The experiment in a line: Activity of compounds against 5-LO enzyme (LTB4 measurement and/or fluorescence method). Particulars: 5-LO, single concentration of 10 uM in duplicate. The class given is biochemical. On the procedure:
The activity of compounds against 5-LO were determined by measuring LTB4 (leukotriene B4) levels and/or by a fluorescence method. Both approaches are outlined in more detail below;
Human 5-lipoxygenase (Cayman, Cat#60402) produced in insect cells was pre-incubated with compound for 15 min at RT in incubation buffer (50 mM Tris-Cl, pH 7.4, 2 mM CaCl2, 0.1 mM ATP, 1% DMSO). The enzymatic reaction was started by adding arachidonic acid to a final concentration of 3 uM. After 5 min of incubation at 37° C., the reaction was stopped by heatinactivation at 80° C. for 5 min. LTB4 levels were quantified by using LTB4 EIA kit (Cayman, Cat#520111) as instructed and/or LTB4 levelswere measured with LC/MS/MS using Quattro Premier™ XE tandem quadrupole mass spectrometer equipped with Acquity UPLC system (Waters, Milford, Mass.). The method was slightly modified as reported previously (Zweifel et al., 2008, Willey et al., 2008, Chappell et al, 2011). Briefly, chromatographic separation was carried out with Acquity UPLC BEH Shield RP18 Column (2.1 mm×50 mm, 1.7 μm particle size, Waters, Milford, Mass.). Sample injection volume was 10 μl, the column temperature was 35° C., the mobile phase A consisted of water with 0.1% formic acid and the mobile phase B consisted of acetonitrile with 0.1% formic acid. Flow rate was 0.4 mL/min and the gradient condition was as follows.
Relative quantification of LTB4 and LTB4-d4 (Internal Standard) was done using multi reaction monitoring (MRM) of the transitions of m/z 335→195 for LTB4, 339→197 for LTB4-d4 in electrospray ionization (ESI) negative mode. Desolvation temperature was 400° C., source temperature was 130° C. Capillary voltage, cone voltage, and collision voltage were 3.5 kV, 30V, and 20 eV, respectively. Nitrogen was used for desolvation (750 L/h) and cone (50 L/h) gas. Argon was used for collision gas (0.22 ml/min). The dwell time was 10 ms.
Besides the two methods quantifying LTB4 level, a fluorescence assay measuring 5-HpETE was introduced for high-throughput screening in a 384 well microplate format (Pufahl et al., 2007). For nonspecific ester cleavage of the acetate groups in H2DCFDA, the insect cell lysate expressing human 5-LO (Cayman Cat#60402) was incubated with H2DCFDA (50 mM Tris-Cl, pH 7.5, 2 mM CaCl2, 20 uM H2DCFDA, 500 mU 5-LO per reaction) for 5 minutes. Compound and enzyme mixture were pre-incubated for 5 minutes, and the enzymatic reaction was initiated by addition of ATP and arachidonic acid to a final concentration of 100 uM and 3 uM, respectively. After 5 minutes of incubation, the fluorescence was measured using Spectramax M5 (Molecular Device, Ex/Em=485 nm/530 nm). All steps were carried out at room temperature.
A total of 378 compounds were initially tested at a single concentration of 10 uM in duplicate with the results summarized in Table 1. From these 378 compounds, 53 compounds plus an additional 25 were selected for confirmation of activity by 6 or 11 point dose response in duplicate with the corresponding IC50 values outlined in Table 2.

Compound `CCOC(=O)c1c(C)nc2ccccn12` [compound 1, Ethyl 2-methylimidazo[1,2-a]pyridine-3-carboxylate] came in with an inhibition at 10 µM of less than 40%.
As for `Cc1nc2ccccn2c1C(=O)O` [compound 2, 2-Methylimidazo[1,2-a]pyridine-3-carboxylic acid], the figure is less than 40%; as for `Cc1nc2ccccn2c1C(=O)NCc1ccccc1` [compound 3, N-Benzyl-2-methylimidazo[1,2-a]pyridine-3-carboxamide], less than 40%.
On to `Cc1nc2ccccn2c1C(=O)NCc1ccc(F)cc1` [compound 4, N-(4-Fluorobenzyl)-2-methylimidazo[1,2-a]pyridine-3-carboxamide], for which the inhibition at 10 µM is less than 40%.
For `Cc1nc2ccccn2c1C(=O)NCc1cccnc1` [compound 5, 2-Methyl-N-(pyridin-3-ylmethyl)imidazo[1,2-a]pyridine-3-carboxamide] the value was less than 40%; for `Cc1nc2ccccn2c1C(=O)NCc1ccc(Oc2ccccc2)cc1` [compound 6, 2-Methyl-N-(4-phenoxybenzyl)imidazo[1,2-a]pyridine-3-carboxamide], less than 40%.
`COc1ccc(CNC(=O)c2c(C)nc3ccccn23)cc1` [compound 7, N-(4-Methoxybenzyl)-2-methylimidazo[1,2-a]pyridine-3-carboxamide]: the inhibition at 10 µM is less than 40%.
As to `COc1ccc(CCNC(=O)c2c(C)nc3ccccn23)cc1` [compound 8, N-(4-Methoxyphenethyl)-2-methylimidazo[1,2-a]pyridine-3-carboxamide], the inhibition at 10 µM was less than 40%.
`Cc1nc2ccccn2c1C(=O)NCC1CCCCC1` [compound 9, N-(Cyclohexylmethyl)-2-methylimidazo[1,2-a]pyridine-3-carboxamide] showed an inhibition at 10 µM of less than 40%.
On to `Cc1nc2ccccn2c1C(=O)NCC1CCN(C(=O)OC(C)(C)C)CC1` [compound 10, tert-Butyl 4-((2-methylimidazo[1,2-a]pyridine-3-carboxamido)methyl)piperidine-1-carboxylate], for which the inhibition at 10 µM was less than 40%.
`Cc1nc2ccccn2c1C(=O)Nc1ccncc1` [compound 11, 2-Methyl-N-(pyridin-4-yl)imidazo[1,2-a]pyridine-3-carboxamide] displayed an inhibition at 10 µM of less than 40%.
For `Cc1nc2ccccn2c1C(=O)NCCc1ccccc1` [compound 12, 2-Methyl-N-phenethylimidazo[1,2-a]pyridine-3-carboxamide], the inhibition at 10 µM was less than 40%.
As for `Cc1nc2ccccn2c1C(=O)Nc1ccc(Oc2ccccc2)cc1` [compound 13, 2-Methyl-N-(4-phenoxyphenyl)imidazo[1,2-a]pyridine-3-carboxamide], the figure is less than 40%; as for `Cc1nc2ccccn2c1C(=O)Nc1ccc(OCc2ccccc2)cc1` [compound 14, N-(4-(Benzyloxy)phenyl)-2-methylimidazo[1,2-a]pyridine-3-carboxamide], less than 40%; as for `Cc1nc2c(Cl)cccn2c1C(=O)NCc1ccccc1` [compound 15, N-Benzyl-8-chloro-2-methylimidazo[1,2-a]pyridine-3-carboxamide], less than 40%.
Turning to `Cc1nc2cc(Cl)ccn2c1C(=O)NCc1ccccc1` [compound 16, N-Benzyl-7-chloro-2-methylimidazo[1,2-a]pyridine-3-carboxamide], the inhibition at 10 µM is less than 40%.
`Cc1nc2ccc(Cl)cn2c1C(=O)NCc1ccccc1` [compound 17, N-Benzyl-6-chloro-2-methylimidazo[1,2-a]pyridine-3-carboxamide] registered an inhibition at 10 µM of less than 40%.
As for `CCOC(=O)c1c(C)nc2cc(-c3ccccc3)ccn12` [compound 18, Ethyl 2-methyl-7-phenylimidazo[1,2-a]pyridine-3-carboxylate], the figure is 40 to 69%; as for `Cc1nc2cc(-c3ccccc3)ccn2c1C(=O)O` [compound 19, 2-Methyl-7-phenylimidazo[1,2-a]pyridine-3-carboxylic acid], less than 40%; as for `Cc1nc2ccccn2c1C(=O)NCc1ccc(-c2ccccc2)cc1` [compound 20, N-(Biphenyl-4-ylmethyl)-2-methylimidazo[1,2-a]pyridine-3-carboxamide], 40 to 69%.
As for `Cc1nc2ccccn2c1C(=O)NCc1ccc2[nH]ccc2c1` [compound 21, N-((1H-Indol-5-yl)methyl)-2-methylimidazo[1,2-a]pyridine-3-carboxamide], the inhibition at 10 µM is less than 40%.
For `Cc1nc2cc(-c3ccccc3)ccn2c1C(=O)NCc1ccccc1` [compound 22, N-Benzyl-2-methyl-7-phenylimidazo[1,2-a]pyridine-3-carboxamide] the value was 40 to 69%.
On to `COC(=O)[C@H](Cc1ccccc1)NC(=O)c1c(C)nc2ccccn12` [compound 23, (S)-Methyl 2-(2-methylimidazo[1,2-a]pyridine-3-carboxamido)-3-phenylpropanoate], for which the inhibition at 10 µM is less than 40%.
For `Cc1nc2ccccn2c1C(=O)NCC1CCNCC1` [compound 24, 2-Methyl-N-(piperidin-4-ylmethyl)imidazo[1,2-a]pyridine-3-carboxamide] the value was less than 40%; for `COC(=O)c1ccc(CNC(=O)c2c(C)nc3ccccn23)cc1` [compound 25, Methyl 4-((2-methylimidazo[1,2-a]pyridine-3-carboxamido)methyl)benzoate], less than 40%; for `Cc1nc2ccccn2c1C(=O)NCc1ccc(C(=O)O)cc1` [compound 26, 4-((2-Methylimidazo[1,2-a]pyridine-3-carboxamido)methyl)benzoic acid], less than 40%.
As for `CCOC(=O)c1c(C)nc2ccc(-c3ccccc3)cn12` [compound 27, Ethyl 2-methyl-6-phenylimidazo[1,2-a]pyridine-3-carboxylate], the figure is 40 to 69%; as for `Cc1nc2ccccn2c1C(=O)NCCOc1ccccc1` [compound 28, 2-Methyl-N-(2-phenoxyethyl)imidazo[1,2-a]pyridine-3-carboxamide], less than 40%; as for `Cc1nc2ccccn2c1C(=O)NCCOCc1ccccc1` [compound 29, N-(2-(Benzyloxy)ethyl)-2-methylimidazo[1,2-a]pyridine-3-carboxamide], less than 40%.
As for `Cc1nc2ccc(C#N)cn2c1C(=O)NCc1ccccc1` [compound 30, N-Benzyl-6-cyano-2-methylimidazo[1,2-a]pyridine-3-carboxamide], the figure is less than 40%; as for `Cc1nc2c(C)cccn2c1C(=O)NCc1ccccc1` [compound 31, N-Benzyl-2,8-dimethylimidazo[1,2-a]pyridine-3-carboxamide], less than 40%; as for `Cc1ccn2c(C(=O)NCc3ccccc3)c(C)nc2c1` [compound 32, N-Benzyl-2,7-dimethylimidazo[1,2-a]pyridine-3-carboxamide], less than 40%.
In the case of `Cc1ccc2nc(C)c(C(=O)NCc3ccccc3)n2c1` [compound 33, N-Benzyl-2,6-dimethylimidazo[1,2-a]pyridine-3-carboxamide], the inhibition at 10 µM was less than 40%.
